Structures can show the parent of a compound that is named as a salt.

In one test the target is T1, HCV NS3 protease (full length NS34a) (Hepatitis C virus genotype 1b, UniProt P26663).
T1 construct: The protease activity of the full length NS34a was measured using a FRET-based assay; made in house
T1 sequence (P26663 1658-1711): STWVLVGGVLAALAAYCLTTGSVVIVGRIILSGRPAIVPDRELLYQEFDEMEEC
T1 sequence (P26663 1027-1657): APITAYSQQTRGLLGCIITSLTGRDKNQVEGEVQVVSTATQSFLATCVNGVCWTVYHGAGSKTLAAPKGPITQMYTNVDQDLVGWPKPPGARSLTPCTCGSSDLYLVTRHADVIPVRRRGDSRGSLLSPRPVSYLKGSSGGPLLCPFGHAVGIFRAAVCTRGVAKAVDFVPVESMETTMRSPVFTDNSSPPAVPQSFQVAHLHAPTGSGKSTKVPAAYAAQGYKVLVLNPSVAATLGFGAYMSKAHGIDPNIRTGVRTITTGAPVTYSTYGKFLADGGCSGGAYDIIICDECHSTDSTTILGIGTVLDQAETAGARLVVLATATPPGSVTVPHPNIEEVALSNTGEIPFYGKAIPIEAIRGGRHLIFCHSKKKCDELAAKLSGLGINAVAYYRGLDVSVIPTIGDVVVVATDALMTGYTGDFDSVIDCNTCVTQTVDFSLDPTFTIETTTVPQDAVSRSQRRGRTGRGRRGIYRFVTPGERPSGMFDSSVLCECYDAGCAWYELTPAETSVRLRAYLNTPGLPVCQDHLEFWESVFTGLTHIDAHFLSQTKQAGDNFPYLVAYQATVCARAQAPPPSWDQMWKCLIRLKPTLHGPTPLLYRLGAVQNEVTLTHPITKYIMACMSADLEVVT
Nature of the test: HCV NS3 protease assay (FRET, full length NS34a). Format: biochemical. The settings on record: IC50 values of 10-150 μM against the protease activity of the full length NS34a, or at least 40% inhibition of protease activity at a concentration of 100 μM. As for the experimental part:
The HCV NS3 protease functions have been extensively studied and are considered as potential targets for antiviral therapy: see for example the many references listed in the introductory section of this application. Therefore, the activity of the compounds of the invention as anti-HCV agents was assessed using a full length HCV NS3 protease.
The protease activity of the full length NS34a was measured using a FRET-based assay utilizing a peptide substrate derived from the NS4AB cleavage site (Anaspec) and labelled at one end with a quencher (QXL520) and at the other with a fluorophore (5-FAMsp). NS34a (produced in-house by literature methods) was incubated with test compounds and peptide substrate in 50 mM Tris pH8, 20 mM DTT, 1% CHAPS, 10% glycerol and 5% DMSO. The reaction was followed by monitoring the change in fluorescence on a Molecular Devices Gemini plate reader for 30 minutes at room temperature. Initial rates were calculated from the progress curves using SoftMax Pro (Molecular Devices). IC50 values were then calculated from replicate curves using Prism GraphPad software.
The term IC50 denotes the point on the concentration scale where inhibition reaches its midpoint. For the molecule `CC[C@@H](N[C@H](C)CC(=O)N[C@@H](C)CO)c1ccc(Cl)c(Oc2ccccc2)c1F` [Example 205], the half-inhibitory concentration (IC50) lay within 10 to 150 µM.

Turning to `CC[C@@H](N[C@@H](C)CC(=O)N[C@@H](C)CO)c1ccc(Cl)c(Oc2ccccc2)c1F` [Example 206], the concentration for half-maximal inhibition (IC50) is 10 to 150 µM.

`CC[C@@H](N[C@H](C)CC(N)=O)c1ccc(Cl)c(Oc2ccc(C#N)c(F)c2)c1F` [Example 214] had an IC50 of 10 to 150 µM.

`CC[C@@H](N[C@H](C)CC(N)=O)c1ccc(Cl)c(Oc2cccc(CNS(C)(=O)=O)c2)c1F` [Example 217] came in with an IC50 of 10 to 150 µM.

Molecule `CC[C@@H](N)c1ccc(Cl)c(Oc2ccc(CO)nc2)c1F` [Example 231] registered a half-inhibitory concentration (IC50) of 10 to 150 µM.

In turn, `CC[C@@H](N[C@H](C)CC(N)=O)c1ccc(Cl)c(Oc2ccc(C#N)nc2)c1F` [Example 247] came in with an IC50 of 10 to 150 µM.

`CC[C@@H](N[C@H](C)CC(N)=O)c1ccc(Cl)c(Oc2ccc(C(N)=O)nc2)c1F` [Example 248, 5-{3-[(R)-1-((R)-2-Carbamoyl-1-methyl-ethylamino)-propyl]-6-chloro-2-fluoro-phenoxy}-pyridine-2-carboxylic acid amide.hydrochloride] came in with an IC50 of 10 to 150 µM.

In turn, `CC[C@@H](N[C@H](C)CC(N)=O)c1ccc(Cl)c(Oc2ccc(N)c(OC)c2)c1F` [Example 254] showed a half-inhibitory concentration (IC50) of 10 to 150 µM.

As to `C[C@H](CC(N)=O)N[C@H](CC1CCOCC1)c1ccc(Cl)c(Oc2ccccc2)c1F` [Example 257], the 50% inhibitory concentration (IC50) was in the range of 10 to 150 µM.

In turn, `C[C@H](CC(N)=O)N[C@@H](CC1CCOCC1)c1ccc(Cl)c(Oc2ccccc2)c1F` [Example 258] yielded an IC50 of 10 to 150 µM.

Staying with this test, now noted: protease activity of full length NS34a, FRET peptide substrate; read-out: Activity IC50.
`CC[C@@H](N)c1ccc(Cl)c(Oc2ccc([N+](=O)[O-])cc2)c1F` [Example 197]: the half-maximal inhibitory concentration (IC50) stood at 2.6 µM.

Take `CC[C@@H](N)c1ccc(Cl)c(Oc2ccc(CNC(C)=O)cc2)c1F` [Example 198]: the IC50 was 1.6 µM.

As for `CC[C@@H](N)c1ccc(Cl)c(Oc2cccc(C#N)c2)c1F` [Example 199], the 50% inhibitory concentration (IC50) stood at 3.8 µM.

`CC[C@@H](N[C@H](C)CC(N)=O)c1ccc(Cl)c(Oc2ccc([N+](=O)[O-])cc2)c1F` [Example 202]: the half-inhibitory concentration (IC50) was 5.4 µM.

Take `CC[C@@H](N)c1ccc(Cl)c(Oc2ccc(-c3cnco3)cc2)c1F` [Example 203, (R)-1-[4-Chloro-2-fluoro-3-(4-oxazol-5-yl-phenoxy)-phenyl]-propylamine.hydrochloride]: the IC50 was found to be 1.6 µM.

Take `CC[C@@H](N)c1ccc(Cl)c(Oc2ccc(/C=N/O)cc2)c1F` [Example 204, 4-[3-((R)-1-Amino-propyl)-6-chloro-2-fluoro-phenoxy]-benzaldehyde oxime.hydrochloride]: the IC50 was 0.72 µM.

As to `CC[C@@H](N[C@H](C)CC(=O)N[C@H](C)CO)c1ccc(Cl)c(Oc2ccccc2)c1F` [Example 208], the concentration for half-maximal inhibition (IC50) was found to be 3.4 µM.

In the case of `CC[C@@H](N[C@H](C)CC(N)=O)c1ccc(Cl)c(Oc2ccc(C#N)c(OC)c2)c1F` [Example 209], the IC50 came out at 4.9 µM.

In the case of `CC[C@@H](N)c1ccc(Cl)c(Oc2cc[nH]c(=O)c2)c1F` [Example 218, 4-[3-((R)-1-Amino-propyl)-6-chloro-2-fluoro-phenoxy]-1H-pyridin-2-one. hydrochloride], the IC50 was found to be 8.2 µM.

Take `CC[C@@H](N[C@H](C)CC(N)=O)c1ccc(Cl)c(Oc2ccc(-c3cnco3)cc2)c1F` [Example 220]: the 50% inhibitory concentration (IC50) was found to be 4.6 µM.

With `CC[C@@H](N)c1ccc(Cl)c(Oc2ccc(F)c(C(N)=O)c2)c1F` [Example 227, 5-[3-((R)-1-Amino-propyl)-6-chloro-2-fluoro-phenoxy]-2-fluoro-benzamide (R isomer).hydrochloride], the IC50 came to 2.2 µM.

Consider `CC[C@@H](N)c1ccc(Cl)c(Oc2ccc(-c3cnco3)c(C)c2)c1F` [Example 228], for which the IC50 worked out at 1.6 µM.

As to `C#Cc1ccc(Oc2c(Cl)ccc([C@@H](CC)N[C@H](C)CC(N)=O)c2F)cc1` [Example 229], the 50% inhibitory concentration (IC50) came to 1.7 µM.

For the molecule `CC[C@@H](N[C@H](C)CC(N)=O)c1ccc(Cl)c(Oc2ccc3c(c2)OCC3)c1F` [Example 232], the half-inhibitory concentration (IC50) amounted to 1.8 µM.

(Values after patent US20140288040A1, “SUBSTITUTED BENZYLAMINE COMPOUNDS, THEIR USE IN MEDICINE, AND IN PARTICULAR THE TREATMENT OF HEPATITIS C VIRUS (HCV) INFECTION” (ASTEX THERAPEUTICS LIMITED, priority 2011, published 2014).)
